Laboratory results from patent publication US9040261B2, “Compounds as L-cystine crystallization inhibitors and uses thereof” (NEW YORK UNIVERSITY, priority 2009, dated 2015).
Counter-ions that a name gives are not always drawn.

Key:
[1] = AFM step velocity and hillock imaging with L-cystine diesters under continuous flow; conditions: 0.015 mM inhibitor, 2 mM L-cystine
Procedure: Atomic force microscopy was performed with a Digital Instruments (Santa Barbara, Calif.) Nanoscope Ma Multimode system. All measurements were performed in a cell designed to contain liquids for in situ imaging, including step velocity measurements. All measurements were performed in contact mode using Veeco NP_B Si3N4 tips on silicon nitride cantilevers with a spring constant of 0.12N/m (triangular, 196 μm length, 41 μm width). L-cystine crystals (hexagonal form) were transferred onto an AFM specimen disk coated with partially cured (1 hr) UV-curable optical cement (Type SK-9, EMS Acquisition Corp.) by gently pressing the disk against hexagonal platelets collected by filtration (Whatman Nuclepore membrane, 8 μm). The (001) faces of the hexagonal plates naturally aligned parallel with the specimen disk such that the velocity of the equivalent {100} steps could be measured readily by AFM. The partially cured polymer with the adhered crystals was cured completely by additional UV radiation (2 hrs) prior to analysis. The mounted L-cystine crystals were etched slightly by immersion in deionized water for 30 sec at 60° C. to remove amorphous deposits or impurities that may be present on the surface. Step velocities on the hexagonal L-cystine crystals were measured by AFM using a fluid cell containing an aqueous solution, supersaturated with L-cystine (2 mM), introduced to the cell via a syringe. Step velocities were determined by measuring the distance of the steps from a reference point, usually the dislocation core, in consecutive deflection images acquired at periodic intervals, ranging from 9-14 sec. Measurements were acquired under continuous flow of fresh solution in order to maintain constant supersaturation and additive concentration. […] The step velocities, which correspond to the crystal growth rates, were measured with and without inhibitor for each pair.

[2] = Bulk crystallization of L-cystine in the presence of additives (mass yield); conditions: 2 mg/L additive, 0.7 g/L L-cystine (pH 6.8); no additive 80; approximate error ±8%
Procedure: Alternately, the hexagonal crystals can be obtained by crystallization performed near neutral pH (Sa) The hexagonal form was crystallized from a supersaturated L-cystine solution prepared by adding 70 mg of L-cystine to 100 mL of deionized water (3 mM), and heating under reflux at 100° C. for 20 min with stirring to completely dissolve L-cystine. […] This concentration was used for bulk crystallization studies in the presence of additives so that a measurable amount of bulk crystals could be obtained in a reasonable time. The solution was then allowed to cool slowly with stirring for 75 min. 30 mL aliquots were transferred to separate glass containers, which were then sealed to prevent evaporation and exposure to airborne particulates and stored for 72 hours at room temperature without stirring. […] The crystals retrieved in this manner were used for AFM studies by mounting individual crystals according to the procedure described below.
Various proteins, poly-amino acids, and molecular mimics of L-cystine were examined as additives. The aforementioned procedure for hexagonal platelet crystallization was repeated. Following the 75 min cooling period, prior to any observable crystallization, the additive was added to the supersaturated L-cystine solution to the desired concentration. […] Crystallization without additive was performed in an identical manner for comparison using a control solution from the same batch. The mass yields of L-cystine crystals were obtained by dividing the mass of L-cystine crystals (collected from growth solution by filtration) by the mass of L-cystine added in the growth solution.
Additives chosen for these studies were various proteins, poly-amino acids, and molecular mimics of L-cystine (see Table 1). The above procedure for hexagonal platelet crystallization was repeated until completion of the 75 min cooling period, at which point 29.5 g of solution was transferred to a 100 mL beaker containing 0.5 g of separately prepared additive solution to yield net concentrations of 2 mg/L additive and 0.7 g/L L-cystine. Additive solutions were replaced with deionized water of equivalent volume for control measurements. […]
L-cystine bulk crystallization was investigated in the presence of various polymers, urinary constituents, fish antifreeze proteins (AFPs), and L-cystine derivatives (i.e. structural mimics of L-cystine), which were analyzed as possible growth inhibitors of hexagonal L-cystine. The potency of each additive was assessed by comparing the difference in crystal yield (Table 1), which is equal to the mass of crystals formed in the presence of 2 mg/L additive (isolated with […]) divided by the total mass of L-cystine (700 mg/L).

[3] = Real time in situ AFM step velocity measurements, static conditions; conditions: 5 g/L cystamine
Procedure: A Digital Instruments (Santa Barbara, Calif.) Nanoscope IIIa Multimode system was used for topographical and lattice imaging. All measurements were performed in contact mode using Veeco NP_B Si3N4 cantilever tips with a spring constant of 0.12N/m (triangular, 196 μm length, 41 μm width) on a glass cantilever holder, and a liquid cell was created for in situ step velocity measurements. All L-cystine crystals for AFM measurements were prepared by method 1. Crystals were transferred onto an AFM specimen disk coated with partially cured (1 hr) UV-curable optical cement (Type SK-9, EMS Acquisition Corp.) by gently pressing the disk against hexagonal platelets or L-cystine needles isolated by filtration (Whatman Nuclepore membrane, 8 μm). The (0001) face of hexagonal platelets was exposed normal to the disk for AFM analysis with growth occurring along equivalent {1010} faces in the lateral directions, while the sides of L-cystine needles were exposed normal to the disc. The partially cured polymer with adhered crystals was completely cured by additional UV radiation (2 hrs) prior to analysis. Measurements of individual step heights for hexagonal L-cystine crystals were acquired in air (contact mode) at a scan rate of 1.00 Hz and 256 samples per line over a 15×15 μm^2 surface area. Integral and proportional gains were set to the highest possible values without obtaining feedback. Four hexagonal crystals (5 areas per crystal) were analyzed for statistical step height distributions, which were calculated from >10^3 individual steps. Lattice-resolved images of crystal surfaces were acquired in water (contact mode) using a scan rate of 112 Hz over a 12×12 nm^2 area.
Real time in situ step velocity measurements of L-cystine growth were assessed along six structurally-equivalent {1010} faces of the hexagonal structure. A liquid cell was created with the glass cantilever tip holder, and working solutions were injected through a 1-mL syringe. Prior to injecting the growth medium (i.e. supersaturated L-cystine solution), crystals were etched with deionized water in the fluid cell for one hour to remove amorphous deposits or impurities that may be present on the surface. Supersaturated solutions (0.5 g/L) were generated by adding L-cystine to deionized water, boiling the solution on a heating mantle for 20 min to completely dissolve the solute, and allowing the solution to cool for 20 min on the heating mantle before transferring the solution (via syringe) to the AFM fluid cell. […]
The effect of additives on crystal growth rates was investigated. […] For each measurement, growth was first assessed in the absence of additive, then in the presence of additive on the identical area of the crystal surface to analyze relative changes in step velocity. […]

[4] = pH 7, 25° C.; cited from earlier work

## CC(C)OC(=O)[C@@H](N)CSSC[C@H](N)C(=O)OC(C)C [L-CDIE, L-Cystine Di-Isopropyl Ester]
[1]
  order of step roughening, corresponding to the trend in inhibition: L-CDME>L-CDEE>L-CDIE>L-CDTE

## NCCSSCCN [Cystamine, cystamine dihydrochloride, reference compound]
[2]
  Yield (%) = (collected mass by filtration, >11 μm)/(total mass added) × 100%: 30%
[3]
  reduction of step velocity relative to the control: 36%
[3]; 0.5 g/L L-cystine, 25° C., static, without additive ~29 nm/min, independent of step height
  Step velocity: 18 ± 3 nm/min

## CC(C)(C)OC(=O)[C@@H](N)CSSC[C@H](N)C(=O)OC(C)(C)C [L-CDTE, Cystine Di-t-Butyl Ester]
[1]
  order of step roughening, corresponding to the trend in inhibition: L-CDME>L-CDEE>L-CDIE>L-CDTE

## CCOC(=O)[C@@H](N)CSSC[C@H](N)C(=O)OCC [L-CDEE, Cystine Diethyl Ester]
[1]
  order of step roughening, corresponding to the trend in inhibition: L-CDME>L-CDEE>L-CDIE>L-CDTE

## N[C@@H](CSSC[C@H](N)C(=O)O)C(=O)O [L-cystine]
[4]
  solubility of L-cystine in water: 400 to 700 µM
